Laboratory results published in US20230136562A1, “SPIROUREA DERIVATIVES” (Idorsia Pharmaceuticals Ltd, priority 2020, published 2023).
Read-outs that look alike come from different tables or passages of the source.

System: primary neuronal cultures from embryonic rat brains
Test: Rat oscillation assay (FLIPR, neuronal calcium oscillations)
Type: cell-based
How it was run: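 Cortical neurons from E18 Wistar rat embryos, cultured 8–10 days at high density, loaded with 1 μM Fluo-8 AM; calcium oscillations recorded by FLIPR once per second in Mg-free HBSS with 2 mM CaCl2, 20 mM HEPES, pH 7.4. Two acquisitions ("Acute", 500 sec, compound added at 250 sec; "20 min"), ± Kv7 blocker XE-991.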

[1] = Rattus norvegicus, 20 min, AUC of fluorescence measured 20 min after compound addition, read-out: FLIPR: IC50 [nM] 20 min
[2] = Rattus norvegicus, Acute phase, ratio of AUC fluorescence before and after compound addition, read-out: FLIPR: IC50 [nM] acute

Row | SMILES | IC50 [1] [nM] | IC50 [2] [nM] | IC50 (AUC of fluorescence measured 20 min after compound addition, read-out: FLIPR: IC50 [nM] 20 min) [nM]
1 | O=C(NCc1cc(F)cc(C(F)(F)F)c1)NC1CC2(CCC2)C1 [Example 18, 1-(3-Fluoro-5-trifluoromethyl-benzyl)-3-spiro[3.3]hept-2-yl-urea] | 65 | 109 | 
2 | O=C(NCc1ccnc(OC(F)(F)F)c1)NC1CC2(CC2)C1 [Example 153, 1-Spiro[2.3]hex-5-yl-3-(2-trifluoromethoxy-pyridin-4-ylmethyl)-urea] | 601 | 336 | 
3 | O=C(NCc1cccc(OC(F)(F)F)c1)NC1CC2(CCC2)C1 [Example 41, 1-Spiro[3.3]hept-2-yl-3-(3-trifluoromethoxy-benzyl)-urea] | 25 | 44 | 
4 | COc1ccc(C(F)(F)F)cc1C(C)NC(=O)NC1CC2(CCC2)C1 (racemic) [Example 20, (±)-1-[1-(2-Methoxy-5-trifluoromethyl-phenyl)-ethyl]-3-spiro[3.3]hept-2-yl-urea] | 304 | 508 | 
5 | O=C(NC1CC2(CCC2)C1)NC(c1cccc(C(F)(F)F)c1)c1c[nH]nn1 (racemic) [Example 162, (±)-1-Spiro[3.3]hept-2-yl-3-[(1H-[1,2,3]triazol-4-yl)-(3-trifluoromethyl-phenyl)-methyl]-urea] | 124 | 120 | 
6 | CC(NC(=O)NC1CC2(CCC2)C1)c1ccnc(OC(C)C(F)(F)F)c1 (centres unmarked) [Example 101, 1-(Spiro[3.3]heptan-2-yl)-3-(1-(2-((1,1,1-trifluoropropan-2-yl)oxy)pyridin-4-yl)ethyl)urea] | 1.6 | 2.4 | 
7 | NC(=O)CCC(NC(=O)NC1CC2(CCC2)C1)c1cccc(C(F)(F)F)c1 (racemic) [Example 79, (±)-4-(3-Spiro[3.3]hept-2-yl-ureido)-4-(3-trifluoromethyl-phenyl)-butyramide] | 634 | 599 | 
8 | O=C(NC1CC2(CCC2)C1)NC(c1cccc(C(F)(F)F)c1)C(F)(F)F (centres unmarked) [Example 58, 1-Spiro[3.3]hept-2-yl-3-[2,2,2-trifluoro-1-(3-trifluoromethyl-phenyl)-ethyl]-urea] | 16 | 20 | 
9 | COc1ccc(C(F)(F)F)cc1CNC(=O)NC1CC2(CC2)C1 [Example 125, 1-(2-Methoxy-5-trifluoromethyl-benzyl)-3-spiro[2.3]hex-5-yl-urea] | 1990 | 1820 | 
10 | CCOCCC(NC(=O)NC1CC2(CCC2)C1)c1cccc(C(F)(F)F)c1 (racemic) [Example 73, (±)-1-[3-Ethoxy-1-(3-trifluoromethyl-phenyl)-propyl]-3-spiro[3.3]hept-2-yl-urea] | 244 | 305 | 
11 | O=C(NCc1ccnc(OCC(F)(F)F)n1)NC1CC2(CCC2)C1 [Example 70, 1-Spiro[3.3]hept-2-yl-3-[2-(2,2,2-trifluoro-ethoxy)-pyrimidin-4-ylmethyl]-urea] | 546 | 219 | 
12 | O=C(NC1CC2(CC2)C1)NC(c1cccc(C(F)(F)F)c1)C(F)F (racemic) [Example 146, (±)-1-[2,2-Difluoro-1-(3-trifluoromethyl-phenyl)-ethyl]-3-spiro[2.3]hex-5-yl-urea] | 6.6 | 4.2 | 
13 | Cc1ccc(CNC(=O)NC2CC3(CCC3)C2)nc1OCC(F)(F)F [Example 108, 1-[5-Methyl-6-(2,2,2-trifluoro-ethoxy)-pyridin-2-ylmethyl]-3-spiro[3.3]hept-2-yl-urea] | 279 | 205 | 
14 | CC(Oc1cccc(C2(NC(=O)NC3CC4(CCC4)C3)CC2)c1)C(F)(F)F (single isomer, unassigned) [Example 169, 1-Spiro[3.3]hept-2-yl-3-{1-[3-(2,2,2-trifluoro-1-methyl-ethoxy)-phenyl]-cyclopropyl}-urea] |  | 42 | 20
15 | CC(NC(=O)NC1CC2(CCC2)C1)c1cccc(OC(C)C(F)(F)F)c1 (centres unmarked) [Example 102, 1-(Spiro[3.3]heptan-2-yl)-3-(1-(3-((1,1,1-trifluoropropan-2-yl)oxy)phenyl)ethyl)urea] | 0.5 | 2.8 | 
16 | O=C(NC1CC2(CCC2)C1)NC1(c2cccc(C(F)(F)F)c2)COC1 [Example 44, 1-Spiro[3.3]hept-2-yl-3-[3-(3-trifluoromethyl-phenyl)-oxetan-3-yl]-urea] | 100 | 78 | 
17 | O=C(NC1CC2(CCC2)C1)NC(CO)c1cc(OCC(F)(F)F)ncn1 (racemic) [Example 83, (±)-1-{2-Hydroxy-1-[6-(2,2,2-trifluoro-ethoxy)-pyrimidin-4-yl]-ethyl}-3-spiro[3.3]hept-2-yl-urea] | 100 | 93 | 
18 | COc1ccc(C(F)(F)F)cc1C(C)NC(=O)NC1CC2(CC2)C1 (racemic) [Example 137, (±)-1-[1-(2-Methoxy-5-trifluoromethyl-phenyl)-ethyl]-3-spiro[2.3]hex-5-yl-urea] | 1020 | 1240 | 
19 | Cc1nc(OCC(F)(F)F)cc(C(C)NC(=O)NC2CC3(CC3)C2)n1 (racemic) [Example 145, (±)-1-{1-[2-Methyl-6-(2,2,2-trifluoro-ethoxy)-pyrimidin-4-yl]-ethyl}-3-spiro[2.3]hex-5-yl-urea] | 80 | 57 | 

Row | SMILES | IC50 [1] [nM] | IC50 [2] [nM] | IC50 (AUC of fluorescence measured 20 min after compound addition, read-out: FLIPR: IC50 [nM] 20 min) [nM]
20 | O=C(NCc1cc(C(F)(F)F)ccc1O)NC1CC2(CCC2)C1 [Example 38, 1-(2-Hydroxy-5-trifluoromethyl-benzyl)-3-spiro[3.3]hept-2-yl-urea] | 330 | 627 | 
21 | O=C(NC1CC2(CCC2)C1)NC(CCO)c1cc(OCC(F)(F)F)ncn1 (racemic) [Example 85, (±)-1-{3-Hydroxy-1-[6-(2,2,2-trifluoro-ethoxy)-pyrimidin-4-yl]-propyl}-3-spiro[3.3]hept-2-yl-urea] | 146 | 157 | 
22 | O=C(NCc1cccc(C(F)F)c1)NC1CC2(CC2)C1 [Example 158, 1-(3-Difluoromethyl-benzyl)-3-spiro[2.3]hex-5-yl-urea] | 414 | 390 | 
23 | C[C@H](NC(=O)NC1CC2(CC2)C1)c1ccnc(OC(F)F)c1 (single isomer, unassigned) [Example 189] | 196 | 221 | 
24 | CC(NC(=O)NC1CC2(CCC2)C1)c1cccc(S(C)(=O)=O)c1 (racemic) [Example 36, (±)-1-[1-(3-Methanesulfonyl-phenyl)-ethyl]-3-spiro[3.3]hept-2-yl-urea] | 330 | 236 | 
25 | O=C(NC1CC2(CCC2)C1)NC(c1cccc(C(F)(F)F)c1)C(F)F (centres unmarked) [Example 57, 1-[2,2-Difluoro-1-(3-trifluoromethyl-phenyl)-ethyl]-3-spiro[3.3]hept-2-yl-urea] | 2.3 | 2.9 | 
26 | O=C(NCc1ccc(F)c(OCC(F)(F)F)c1)NC1CC2(CCC2)C1 [Example 114, 1-[4-Fluoro-3-(2,2,2-trifluoro-ethoxy)-benzyl]-3-spiro[3.3]hept-2-yl-urea] | 61 | 107 | 
27 | N#CCC(NC(=O)NC1CC2(CCC2)C1)c1cccc(OC(F)(F)F)c1 (racemic) [Example 66, (±)-1-[2-Cyano-1-(3-trifluoromethoxy-phenyl)-ethyl]-3-spiro[3.3]hept-2-yl-urea] | 17 | 8.2 | 
28 | CC(NC(=O)NC1CC2(CCC2)C1)c1cccc(OCC(F)(F)F)c1 (racemic) [Example 90, (±)-1-Spiro[3.3]hept-2-yl-3-{1-[3-(2,2,2-trifluoro-ethoxy)-phenyl]-ethyl}-urea] | 2.7 | 4 | 
29 | CC(Oc1cc(CNC(=O)NC2CC3(CC3)C2)ncn1)C(F)(F)F (racemic) [Example 120, (±)-1-Spiro[2.3]hex-5-yl-3-[6-(2,2,2-trifluoro-1-methyl-ethoxy)-pyrimidin-4-ylmethyl]-urea] | 151 | 136 | 
30 | O=C(NC1CC2(CCC2)C1)N[C@H](c1cccc(C(F)(F)F)c1)C(F)(F)F (single isomer, unassigned) [Example 178] | 11 | 16 | 
31 | COCC(NC(=O)NC1CC2(CC2)C1)c1ccnc(OCC(F)(F)F)c1 (racemic) [Example 154, (±)-1-{2-Methoxy-1-[2-(2,2,2-trifluoro-ethoxy)-pyridin-4-yl]-ethyl}-3-spiro[2.3]hex-5-yl-urea] | 24 | 8.1 | 
32 | O=C(NCc1cccc(C(F)F)c1)NC1CC2(CCC2)C1 [Example 15, 1-(3-Difluoromethyl-benzyl)-3-spiro[3.3]hept-2-yl-urea] | 126 | 124 | 
33 | CC(NC(=O)NC1CC2(CCC2)C1)c1cc(F)cc(OCC(F)(F)F)c1 (racemic) [Example 95, (±)-1-{1-[3-Fluoro-5-(2,2,2-trifluoro-ethoxy)-phenyl]-ethyl}-3-spiro[3.3]hept-2-yl-urea] | 48 | 52 | 
34 | CC(C)OCC(NC(=O)NC1CC2(CCC2)C1)c1cccc(C(F)(F)F)c1 (racemic) [Example 72, (±)-1-[2-Isopropoxy-1-(3-trifluoromethyl-phenyl)-ethyl]-3-spiro[3.3]hept-2-yl-urea] | 238 | 266 | 
35 | Cn1nnc(C(NC(=O)NC2CC3(CCC3)C2)c2cccc(C(F)(F)F)c2)n1 (racemic) [Example 164, (±)-1-[(2-Methyl-2H-tetrazol-5-yl)-(3-trifluoromethyl-phenyl)-methyl]-3-spiro[3.3]hept-2-yl-urea] | 619 | 267 | 
36 | O=C(NCc1ccnc(OC(F)(F)F)c1)NC1CC2(CCC2)C1 [Example 96, 1-Spiro[3.3]hept-2-yl-3-(2-trifluoromethoxy-pyridin-4-ylmethyl)-urea] | 61 | 82 | 
37 | N#CC(NC(=O)NC1CC2(CCC2)C1)c1cccc(C(F)(F)F)c1 (centres unmarked) [Example 55, 1-[Cyano-(3-trifluoromethyl-phenyl)-methyl]-3-spiro[3.3]hept-2-yl-urea] | 48 | 67 | 
